In the Kinase Knowledgebase extract (Sharma et al. 2016):
Several values for one entry are separate records, joined by “and”; a condition that tells them apart may be missing. Equal entries are not always repeated.

Key:
PIK3CD (Human) [1] = target: PIK3CD (Human) (UniProt O00329); assay: Cell-Based Assay; details: rat-1
PIK3CD (Human) [2] = target: PIK3CD (Human) (UniProt O00329); assay: Enzyme Assay
PIK3CG (human) = PIK3CG (human) (UniProt P48736); assay: Enzyme Assay
[3] = target: PIK3CA (human), P42336 [H1047R]; assay: Cell-Based Assay; details: detroit562
PIK3CB (Human) [4] = target: PIK3CB (Human) (UniProt P42338); assay: Cell-Based Assay; details: rat-1
PIK3CA (human) [5] = target: PIK3CA (human) (UniProt P42336); assay: Cell-Based Assay; details: rat-1
PIK3CB (Human) [6] = target: PIK3CB (Human) (UniProt P42338); assay: Enzyme Assay
PIK3CA (human) [7] = target: PIK3CA (human) (UniProt P42336); assay: Enzyme Assay

PIK3CD (Human), sequence (O00329 whole entry, looked up): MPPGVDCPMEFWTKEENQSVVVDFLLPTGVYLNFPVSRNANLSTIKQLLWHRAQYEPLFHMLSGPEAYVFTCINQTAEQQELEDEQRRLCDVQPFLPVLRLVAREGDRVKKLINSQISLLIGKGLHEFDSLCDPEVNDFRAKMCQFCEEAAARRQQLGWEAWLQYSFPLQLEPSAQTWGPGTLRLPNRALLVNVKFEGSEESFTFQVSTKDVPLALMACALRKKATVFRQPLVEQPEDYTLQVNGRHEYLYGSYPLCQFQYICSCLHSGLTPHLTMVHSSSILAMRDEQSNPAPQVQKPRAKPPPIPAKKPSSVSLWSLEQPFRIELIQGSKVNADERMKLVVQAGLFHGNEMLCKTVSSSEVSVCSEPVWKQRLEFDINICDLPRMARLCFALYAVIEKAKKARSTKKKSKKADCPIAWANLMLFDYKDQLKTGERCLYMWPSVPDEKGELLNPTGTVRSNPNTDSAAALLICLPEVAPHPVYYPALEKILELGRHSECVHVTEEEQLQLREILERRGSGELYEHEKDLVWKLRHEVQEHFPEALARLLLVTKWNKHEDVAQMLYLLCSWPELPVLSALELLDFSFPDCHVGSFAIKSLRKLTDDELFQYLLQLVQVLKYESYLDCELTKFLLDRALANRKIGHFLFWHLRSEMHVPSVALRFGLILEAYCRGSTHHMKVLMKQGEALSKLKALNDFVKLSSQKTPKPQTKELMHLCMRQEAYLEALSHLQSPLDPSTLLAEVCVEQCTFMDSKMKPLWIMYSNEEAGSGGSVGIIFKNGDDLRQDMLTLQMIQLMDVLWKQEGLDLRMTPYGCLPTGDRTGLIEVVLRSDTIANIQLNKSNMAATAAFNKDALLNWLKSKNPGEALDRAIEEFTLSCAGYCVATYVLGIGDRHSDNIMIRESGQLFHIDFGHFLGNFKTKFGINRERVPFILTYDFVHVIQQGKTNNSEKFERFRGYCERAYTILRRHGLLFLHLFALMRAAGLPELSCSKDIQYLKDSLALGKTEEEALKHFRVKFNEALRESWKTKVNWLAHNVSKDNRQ
PIK3CG (human), sequence (P48736 whole entry, looked up): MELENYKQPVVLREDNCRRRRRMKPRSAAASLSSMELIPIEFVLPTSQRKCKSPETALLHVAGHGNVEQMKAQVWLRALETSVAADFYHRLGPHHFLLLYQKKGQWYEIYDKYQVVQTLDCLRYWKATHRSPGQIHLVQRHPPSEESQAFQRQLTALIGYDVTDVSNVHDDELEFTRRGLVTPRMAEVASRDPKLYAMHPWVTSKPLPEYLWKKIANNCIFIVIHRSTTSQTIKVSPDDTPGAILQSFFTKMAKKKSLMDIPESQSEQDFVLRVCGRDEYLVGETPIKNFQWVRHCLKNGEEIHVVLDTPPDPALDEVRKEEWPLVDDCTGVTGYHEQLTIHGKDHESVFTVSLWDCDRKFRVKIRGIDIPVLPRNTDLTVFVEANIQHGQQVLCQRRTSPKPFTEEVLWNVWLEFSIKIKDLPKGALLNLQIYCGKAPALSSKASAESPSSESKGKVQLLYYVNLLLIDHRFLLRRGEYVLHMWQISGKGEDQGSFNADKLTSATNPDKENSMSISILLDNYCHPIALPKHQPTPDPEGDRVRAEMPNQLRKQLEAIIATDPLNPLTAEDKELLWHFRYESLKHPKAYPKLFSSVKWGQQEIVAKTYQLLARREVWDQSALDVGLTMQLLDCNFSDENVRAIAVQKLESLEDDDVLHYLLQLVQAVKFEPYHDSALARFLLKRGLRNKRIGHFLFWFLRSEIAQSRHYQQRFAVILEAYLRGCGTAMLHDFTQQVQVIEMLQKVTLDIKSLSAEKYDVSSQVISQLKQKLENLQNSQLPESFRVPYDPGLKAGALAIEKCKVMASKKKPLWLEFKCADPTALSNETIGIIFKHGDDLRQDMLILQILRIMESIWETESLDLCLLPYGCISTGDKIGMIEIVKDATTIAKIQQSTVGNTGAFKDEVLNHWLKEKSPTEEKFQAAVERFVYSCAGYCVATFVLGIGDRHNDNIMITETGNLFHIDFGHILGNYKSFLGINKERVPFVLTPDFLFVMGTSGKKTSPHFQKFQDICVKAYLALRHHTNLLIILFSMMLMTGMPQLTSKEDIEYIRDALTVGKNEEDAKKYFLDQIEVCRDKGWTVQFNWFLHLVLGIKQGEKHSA
PIK3CB (Human), sequence (P42338 whole entry, looked up): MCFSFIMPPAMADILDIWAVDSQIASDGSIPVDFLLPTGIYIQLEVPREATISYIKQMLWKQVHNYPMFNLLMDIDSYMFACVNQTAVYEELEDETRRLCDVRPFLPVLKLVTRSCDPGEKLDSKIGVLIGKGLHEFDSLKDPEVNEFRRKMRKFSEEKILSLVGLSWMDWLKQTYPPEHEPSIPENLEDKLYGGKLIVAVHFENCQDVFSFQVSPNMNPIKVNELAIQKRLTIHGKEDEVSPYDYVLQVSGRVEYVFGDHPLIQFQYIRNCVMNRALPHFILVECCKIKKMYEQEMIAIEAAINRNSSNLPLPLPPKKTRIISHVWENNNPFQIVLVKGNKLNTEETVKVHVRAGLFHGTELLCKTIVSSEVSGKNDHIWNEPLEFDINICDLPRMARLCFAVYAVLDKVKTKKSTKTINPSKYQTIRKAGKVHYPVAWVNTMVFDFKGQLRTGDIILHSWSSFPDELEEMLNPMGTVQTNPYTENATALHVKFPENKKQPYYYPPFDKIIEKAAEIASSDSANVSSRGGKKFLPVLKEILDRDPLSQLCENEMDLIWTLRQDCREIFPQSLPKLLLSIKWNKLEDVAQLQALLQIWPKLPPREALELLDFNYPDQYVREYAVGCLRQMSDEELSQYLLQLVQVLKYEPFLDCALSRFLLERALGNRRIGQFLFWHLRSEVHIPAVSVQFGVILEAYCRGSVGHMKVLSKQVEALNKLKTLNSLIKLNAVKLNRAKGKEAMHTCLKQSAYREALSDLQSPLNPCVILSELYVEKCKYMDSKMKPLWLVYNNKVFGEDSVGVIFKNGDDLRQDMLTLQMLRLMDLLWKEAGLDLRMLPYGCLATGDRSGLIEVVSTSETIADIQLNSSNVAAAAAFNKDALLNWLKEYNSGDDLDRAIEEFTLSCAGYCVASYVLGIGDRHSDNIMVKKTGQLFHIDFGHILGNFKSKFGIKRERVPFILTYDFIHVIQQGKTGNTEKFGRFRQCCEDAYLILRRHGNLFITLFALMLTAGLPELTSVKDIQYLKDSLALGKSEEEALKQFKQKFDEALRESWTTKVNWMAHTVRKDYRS
PIK3CA (human), P42336 [H1047R], sequence (P42336 whole entry H1047R, looked up): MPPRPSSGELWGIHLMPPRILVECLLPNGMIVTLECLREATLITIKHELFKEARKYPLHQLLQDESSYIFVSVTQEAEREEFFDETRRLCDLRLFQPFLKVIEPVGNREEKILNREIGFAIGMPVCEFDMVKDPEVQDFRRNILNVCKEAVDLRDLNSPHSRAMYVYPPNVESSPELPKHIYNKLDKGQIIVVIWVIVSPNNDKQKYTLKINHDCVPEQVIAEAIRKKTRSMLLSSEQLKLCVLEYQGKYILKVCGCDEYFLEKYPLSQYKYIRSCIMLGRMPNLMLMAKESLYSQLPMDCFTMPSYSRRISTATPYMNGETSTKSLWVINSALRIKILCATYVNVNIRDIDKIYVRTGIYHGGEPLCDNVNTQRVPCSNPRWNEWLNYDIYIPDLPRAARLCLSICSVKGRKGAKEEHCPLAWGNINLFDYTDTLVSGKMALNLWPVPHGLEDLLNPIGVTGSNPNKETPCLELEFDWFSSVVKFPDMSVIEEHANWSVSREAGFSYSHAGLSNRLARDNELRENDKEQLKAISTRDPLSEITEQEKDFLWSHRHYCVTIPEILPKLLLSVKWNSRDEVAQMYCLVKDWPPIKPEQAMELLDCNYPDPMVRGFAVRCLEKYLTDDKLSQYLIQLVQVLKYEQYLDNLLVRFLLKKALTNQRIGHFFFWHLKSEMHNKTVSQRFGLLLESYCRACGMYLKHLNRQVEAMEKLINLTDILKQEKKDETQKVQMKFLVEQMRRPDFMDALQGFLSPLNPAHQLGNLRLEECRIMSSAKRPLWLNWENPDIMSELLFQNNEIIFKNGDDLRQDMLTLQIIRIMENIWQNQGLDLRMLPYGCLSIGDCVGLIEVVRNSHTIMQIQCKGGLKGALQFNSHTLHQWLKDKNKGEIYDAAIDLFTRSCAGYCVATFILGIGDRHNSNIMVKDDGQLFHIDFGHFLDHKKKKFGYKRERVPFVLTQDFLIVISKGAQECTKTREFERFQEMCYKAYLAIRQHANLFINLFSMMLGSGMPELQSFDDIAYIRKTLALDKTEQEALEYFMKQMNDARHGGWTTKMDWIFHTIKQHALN
PIK3CA (human), sequence (P42336 whole entry, looked up): as the sequence (P42336 whole entry H1047R, looked up) above, with R1047H counted along it

Structure (SMILES) | IC50 (PIK3CD (Human) [1]) | IC50 (PIK3CD (Human) [2]) | IC50 (PIK3CG (human)) | IC50 [3] | IC50 (PIK3CB (Human) [4]) | IC50 (PIK3CA (human) [5]) | IC50 (PIK3CB (Human) [6]) | IC50 (PIK3CA (human) [7])
COCCOc1ccc([C@@H]2OC(=O)N(c3cc(-c4cnc(N)nc4C(F)(F)F)nc(N4CCOCC4)n3)[C@H]2CO)cc1 | 4 nM |  |  |  |  |  |  | 
Nc1ncc(-c2cc(N3CCOCC3)nc(N3CCOCC3)n2)c(C(F)(F)F)n1 | 139 nM | 24 nM | 315 nM |  |  |  |  | 
Nc1ncc(-c2cc(N3CCOC(c4ccccc4)C3)nc(N3CCOCC3)n2)c(C(F)(F)F)n1 (configuration not stated) | 105 nM | 110 nM | 170 nM | 2390 nM and 1370 nM | > 10000 nM | > 10000 nM | 27 nM | 15 nM
CC[C@H]1[C@H](c2ccc(OC)cc2)OC(=O)N1c1cc(-c2cnc(N)nc2C(F)(F)F)nc(N2CCOCC2)n1 |  |  | 5800 nM |  |  |  | 96 nM | 
C[C@H]1[C@H](c2nccs2)OC(=O)N1c1cc(-c2cnc(N)nc2C(F)(F)F)nc(N2CCOCC2)n1 |  |  |  | 440 nM and 598 nM |  |  |  | 
CC[C@@H]1[C@@H](c2cccc(OC)c2)OC(=O)N1c1cc(-c2cnc(N)nc2C(F)(F)F)nc(N2CCOCC2)n1 |  |  | 7000 nM |  |  |  |  | 
Nc1ncc(-c2cc(N3C(=O)O[C@@H](c4ccc(OCCO)cc4)[C@@H]3CO)nc(N3CCOCC3)n2)c(C(F)(F)F)n1 | < 3 nM |  |  |  | < 3 nM |  |  | 

The remaining lines, values ahead:

IC50 (PIK3CD (Human) [1]) | IC50 (PIK3CD (Human) [2]) | IC50 (PIK3CG (human)) | IC50 [3] | IC50 (PIK3CB (Human) [4]) | IC50 (PIK3CA (human) [5]) | IC50 (PIK3CB (Human) [6]) | IC50 (PIK3CA (human) [7]) | Structure (SMILES)
6540 nM | 1220 nM | 4460 nM | 3300 nM | 5310 nM | 1730 nM | 1070 nM | 327 nM | Nc1cc(C(F)(F)F)c(-c2cc(N3CCC(=O)CC3)nc(N3CCOCC3)n2)cn1
1040 nM | 848 nM | 3360 nM | 4410 nM and 3080 nM | 1540 nM | 369 nM | 237 nM | 94 nM | Nc1cc(C(F)(F)F)c(-c2cc(N3CCCCC3=O)nc(N3CCOCC3)n2)cn1
1470 nM | 1980 nM | 7350 nM | 4550 nM and 2810 nM | 1580 nM | 606 nM | 236 nM | 91 nM | Nc1cc(C(F)(F)F)c(-c2cc(N3CCN(c4ccccc4)C3=O)nc(N3CCOCC3)n2)cn1
